Reference: article PMC6071666 (Bioorganic & medicinal chemistry, 2018)

Biological target: LSD1 (Homo sapiens, UniProt O60341)
Assay: in vitro demethylation of H3K4me2 peptide by GST-LSD1, mass spectrometry readout
Format: biochemical

## CC(C)(C)OC(=O)NC1CC1c1ccc(OC(=O)OC(C)(C)C)cc1 (stereo not shown) [compound 3, tert-butyl 2-(4-(tert-butoxycarbonyloxy)phenyl)cyclopropylcarbamate]
  IC50: ~21.2 µM
